According to patent US4092415A, “Microorganism combatting quinoxaline-di-N-oxide carboxamides” (Ciba-Geigy Corporation, priority 1976, dated 1978):
Like-named read-outs stand apart in the source and are kept apart here.

Assays:
Assay type in all cases: in vivo
[1] = system: Staph. aureus Smith; experiment: Intraperitoneally infected white mice, Staph. aureus Smith; conditions: Staphylococcus aureus, with infection and 3 hours later, read-out: average effective dose/confidence interval
Protocol: (§1) In tests carried out on white mice, the intraperitoneally infected animals are treated subcutaneously and perorally as follows:
(§2) The administration is effected in doses of 1 mg, 3 mg, 10 mg, 30 mg, 100 mg or 300 mg of active substance per kg of body weight initially simultaneously with the infection and a second time 3 hours later.

[2] = system: Strept. pyog. Aronson; experiment: Intraperitoneally infected white mice, Strept. pyog. Aronson; conditions: Mus musculus; for ED50: with infection and 3 hours later, read-out: average effective dose/confidence interval; for ED20: value marked (ED 20)
Protocol: as §1, §2

[3] = system: E. coli 205; experiment: Intraperitoneally infected white mice, E. coli 205; conditions: Escherichia coli, with infection and 3 hours later, read-out: average effective dose/confidence interval
Protocol: as §1, §2

[4] = system: Salm. ty.-m; experiment: Intraperitoneally infected white mice, Salm. ty.-m; conditions: Mus musculus, with infection and 3 hours later, read-out: average effective dose/confidence interval
Protocol: as §1, §2

[5] = system: Past. mult.; experiment: Intraperitoneally infected white mice, Past. mult.; conditions: Mus musculus, with infection and 3 hours later, read-out: average effective dose/confidence interval
Protocol: as §1, §2

[6] = system: Pseud. aerug.; experiment: Intraperitoneally infected white mice, Pseud. aerug.; conditions: Mus musculus, with infection and 3 hours later, read-out: average effective dose/confidence interval
Protocol: as §1, §2

[7] = system: simultaneously infected hens; experiment: Single peroral administration to simultaneously infected hens; conditions: Gallus gallus, po, single peroral administration by probang, simultaneous with infection
Text: Single peroral administration by means of a probang to
simultaneously infected hens in mg of active substance

[8] = system: piglets; experiment: Demonstration of growth: piglets fed 28 days with medicated feed; conditions: 50 ppm in feed
Text: A group of eight piglets (four .male. and four .female.) was fed for 28 days with a normal feed containing 17.6% of raw protein and 3.4% of crude fibres and to which 50 ppm of 1,4-dioxido-3-methyl-quinoxaline(2)-N-(2'-cyanoethyl)-carboxamide (Example 1) had been added. The average initial weight of the individual test animals was approx. 9 kg at the start of the test. At the conclusion of the test the animals were weighed individually and the feed consumption determined in groups. For control purposes, a parallel test following the same procedure was carried out using the same feed without the addition of active substance.

Row | SMILES | ED50 ([1]; 2 × po.) | ED50 ([1]; 2 × sc.) | ED50 ([2]; 2 × po.) | ED20 ([2]; 2 × sc.) | ED50 ([3]; 2 × po.) | ED50 ([3]; 2 × sc.) | ED50 ([4]; 2 × po.) | ED50 ([4]; 2 × sc.) | ED50 ([5]; 2 × po.) | ED50 ([5]; 2 × sc.) | ED50 ([6]; 2 × po.) | ED50 ([6]; 2 × sc.) | ED50 [7] | ED20 ([2]; 2 × po.) | ED50 ([2]; 2 × sc.) | Feed consumption index abs. ([8]; average values, control 1.90) | Daily growth rate abs. ([8]; average values, control 231 g) | Daily growth rate rel. ([8]; control 100%) | Feed consumption index rel. ([8]; control 100%)
1 | Cc1c(C(=O)NCC#N)[n+]([O-])c2ccccc2[n+]1[O-] [A, 1,4-dioxido-3-methyl-quinoxaline(2)-N-(cyanomethyl)-carboxamide] | 12 mg/kg | 10 mg/kg | 265 mg/kg | 205 mg/kg | 3.5 mg/kg | 3 mg/kg | 4.2 mg/kg | 3.9 mg/kg | 3.4 mg/kg | 3 mg/kg | 75 mg/kg | 120 mg/kg | 2 mg/kg |  |  |  |  |  | 
2 | Cc1c(C(=O)NC(C)(C)C#N)[n+]([O-])c2ccccc2[n+]1[O-] [B] | 18 mg/kg | 16 mg/kg |  | 140 mg/kg | 18 mg/kg | 11 mg/kg | 25 mg/kg | 11 mg/kg | 5.1 mg/kg | 3.2 mg/kg | > 300 mg/kg | > 100 mg/kg |  | 170 mg/kg |  |  |  |  | 
3 | Cc1c(C(=O)NCCC#N)[n+]([O-])c2ccccc2[n+]1[O-] [C, 1,4-Dioxido-3-methyl-quinoxaline(2)-N-(2'-cyanoethyl)-carboxamide] | 27 mg/kg | 18 mg/kg | 275 mg/kg |  | 6.6 mg/kg | 5.5 mg/kg | 11 mg/kg | 10 mg/kg | 3.9 mg/kg | 5.5 mg/kg | 235 mg/kg | 105 mg/kg |  |  | 400 mg/kg | 1.69 kg of feed consumed per kg of | 305 g | 132% | 88,9%
4 | Cc1c(C(=O)NCCO)[n+]([O-])c2ccccc2[n+]1[O-] [D, reference compound] | 60 mg/kg | 40 mg/kg | 410 mg/kg |  | 10 mg/kg | 9 mg/kg | 13 mg/kg | 10 mg/kg | 15 mg/kg | 14 mg/kg | 490 mg/kg | 210 mg/kg | 5.3 mg/kg |  | 425 mg/kg |  |  |  | 
5 | COC(=O)N/N=C/c1c[n+]([O-])c2ccccc2[n+]1[O-] [E, reference compound] | 35 mg/kg | 2500 mg/kg |  |  | 30 mg/kg | 300 mg/kg | 25 mg/kg | 140 mg/kg | ~30 mg/kg | ~100 mg/kg |  |  | 9 mg/kg |  |  |  |  |  | 
